13 compounds from US7312188B2, “Peptide derivatives having β-secretase inhibitory activity” (priority 2003, dated 2007) can be followed below.

For orientation: inhibition means the share of the control response that was lost under treatment.

Numbered stars: 1 amine (or outer) side, 2 acyl side, 3 side chain; on linkers, the order of the positions; unused ones are H or OH. Square brackets hold non-standard residues; d marks the D form. Apns = amino acid residue of (2S,3S)-3-amino-2-hydroxy-4-phenylbutanoic acid, O=C([C@@H](O)[C@H](Cc1ccccc1)N[*:1])[*:2]; β3hPhe(2R-OH) = O=C([C@H](O)[C@H](Cc1ccccc1)N[*:1])[*:2]

T1 sequence (P56817 22-460 limits assumed): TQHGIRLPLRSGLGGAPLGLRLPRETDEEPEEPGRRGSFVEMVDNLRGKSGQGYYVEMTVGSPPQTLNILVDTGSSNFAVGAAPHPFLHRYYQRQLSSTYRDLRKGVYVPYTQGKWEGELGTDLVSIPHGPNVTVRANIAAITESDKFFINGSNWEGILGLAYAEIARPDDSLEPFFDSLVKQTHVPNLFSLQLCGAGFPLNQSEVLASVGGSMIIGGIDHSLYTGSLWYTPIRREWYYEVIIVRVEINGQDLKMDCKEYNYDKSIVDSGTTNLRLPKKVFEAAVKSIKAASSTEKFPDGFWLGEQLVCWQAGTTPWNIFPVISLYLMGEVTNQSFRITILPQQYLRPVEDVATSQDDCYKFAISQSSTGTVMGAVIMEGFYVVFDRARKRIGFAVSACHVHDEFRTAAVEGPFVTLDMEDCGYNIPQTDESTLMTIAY

This experiment addresses T1, recombinant human BACE-1 (rhBACE-1) (Homo sapiens, UniProt P56817).
T1 construct: expressed as only an extracellular region (amino acid 1-460 residues) of recombinant human β-secretase; His tag (C); purchased R&D systems (Minneapolis, Minn.); host or cells: murine myeloma cell line NS0
Description: BACE1 inhibitory activity, reverse phase HPLC quantitation of N-terminal fragment of fluorogenic substrate. It is filed as biochemical. Conditions: 1 μL of inhibitor solution in DMSO (100 μM) in 50 μL reaction; MES buffer pH 5.0; 37° C., 60 minutes. The gist of the method: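 rhBACE-1 ectodomain (residues 1-460, C-terminal His tag, NS0-expressed) in MES buffer pH 5.0 with inhibitor (diluted in DMSO, 100 μM solution) and MCA/DNP fluorogenic peptide (250 μM stock), 60 min at 37 °C, TCA stop. N-terminal fragment quantified by reverse-phase HPLC fluorescence (Ex 328/Em 393 nm); inhibition % derived.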
With `CC(C)C[C@H](NC(=O)[C@@H](NC(=O)[C@@H](N)CCC(=O)O)C(C)C)C(=O)N[C@@H](Cc1ccccc1)[C@@H](O)C(=O)Nc1cc(C(N)=O)cc(C(=O)O)c1` [Example 179], the inhibition at 2 µM came to 83.7%.

`CNC(=O)c1cc(NC(=O)[C@H](O)[C@H](Cc2ccccc2)NC(=O)[C@H](CC(C)C)NC(=O)[C@@H](NC(=O)[C@@H](N)CCC(=O)O)C(C)C)cc(C(=O)NC)c1` [Example 180]: the inhibition at 2 µM amounted to 51.4%.

For `COC(=O)c1cc(N)cc(C(=O)NC[C@H](N)C(=O)N[C@H](C(=O)N[C@@H](CC(C)C)C(=O)N[C@@H](Cc2ccccc2)[C@@H](O)C(=O)Nc2cccc(C(=O)O)c2)C(C)C)c1` [Example 181], the inhibition at 100 µM (stock) came out at 82.5%.

Consider `CC(C)C[C@H](NC(=O)[C@@H](NC(=O)[C@@H](N)CCC(=O)O)C(C)C)C(=O)N[C@@H](Cc1ccccc1)[C@@H](O)C(=O)Nc1cc(Cl)c(OCC(N)=O)c(Cl)c1` [Example 182], for which the inhibition at 100 µM (stock) was found to be 75.7%.

Turning to `COC(=O)c1cccc(C(=O)NC[C@H](N)C(=O)N[C@H](C(=O)N[C@@H](CC(C)C)C(=O)N[C@@H](Cc2ccccc2)[C@@H](O)C(=O)Nc2cccc(C(=O)O)c2)C(C)C)c1` [Example 183], the inhibition at 100 µM (stock) came to 52.1%.

`CC(C)C[C@H](NC(=O)[C@@H](NC(=O)[C@@H](N)CCC(=O)O)C(C)C)C(=O)N[C@@H](Cc1ccccc1)[C@@H](O)C(=O)Nc1cc(Br)c(OCC(=O)O)c(Br)c1` [Example 184]: the inhibition at 100 µM (stock) turned out to be 88.1%.

Take `CC(C)C[C@H](NC(=O)[C@@H](NC(=O)[C@@H](N)CNC(=O)c1nnn[nH]1)C(C)C)C(=O)N[C@@H](Cc1ccccc1)[C@@H](O)C(=O)Nc1cccc(-c2nnn[nH]2)c1` [Example 185]: the inhibition at 100 µM (stock) was determined as 100%. Still for that read-out and setting: next, `CC(C)C[C@H](NC(=O)[C@@H](NC(=O)[C@@H](N)CNC(=O)c1[nH]c(=O)[nH]c(=O)c1F)C(C)C)C(=O)N[C@@H](Cc1ccccc1)[C@@H](O)C(=O)Nc1cccc(-c2nnn[nH]2)c1` [Example 187]: 100%.

`CC(C)[C@H](NC(=O)[C@@H](N)CNC(=O)c1cc(O)ccc1O)C(=O)N[C@@H](CC1CCCCC1)C(=O)N[C@@H](Cc1ccccc1)[C@@H](O)C(=O)Nc1cccc(-c2nnn[nH]2)c1` [Example 188]: the inhibition at 100 µM (stock) came out at 99.5%.

As to `CC(C)[C@H](NC(=O)[C@@H](N)CNC(=O)c1[nH]c(=O)[nH]c(=O)c1F)C(=O)N[C@@H](CC1CCCCC1)C(=O)N[C@@H](Cc1ccccc1)[C@@H](O)C(=O)Nc1cccc(-c2nnn[nH]2)c1` [Example 189], the inhibition at 100 µM (stock) turned out to be 100%. On the same count and under the same terms, next, `CC(C)C[C@H](NC(=O)[C@@H](NC(=O)[C@@H](N)CNC(=O)c1cc(O)ccc1O)C(C)C)C(=O)N[C@@H](Cc1ccccc1)[C@@H](O)C(=O)Nc1cccc(-c2nnn[nH]2)c1` [Example 190]: 99.3%.

Turning to “H-Glu-Val-Leu-Apns-Asp-Ala-Glu-Phe-OH ({H2N-Glu-Val-Leu-Apns}-DAEF-OH; SMILES CC(C)C[C@H](NC(=O)[C@@H](NC(=O)[C@@H](N)CCC(=O)O)C(C)C)C(=O)N[C@@H](Cc1ccccc1)[C@H](O)C(=O)N[C@@H](CC(=O)O)C(=O)N[C@@H](C)C(=O)N[C@@H](CCC(=O)O)C(=O)N[C@@H](Cc1ccccc1)C(=O)O) [Example 18]”, the “Activity (BACE1 inhibition %)” value was determined as 53.38%. “H-Glu-Val-Leu-Pns-Ala-Ala-Glu-Phe-OH (H-EVL[β3hPhe(2R-OH)]AAEF-OH; SMILES CC(C)C[C@H](NC(=O)[C@@H](NC(=O)[C@@H](N)CCC(=O)O)C(C)C)C(=O)N[C@@H](Cc1ccccc1)[C@@H](O)C(=O)N[C@@H](C)C(=O)N[C@@H](C)C(=O)N[C@@H](CCC(=O)O)C(=O)N[C@@H](Cc1ccccc1)C(=O)O) [Example 13]”: the “Activity (BACE1 inhibition %)” value is on record as 53.71%.
